According to patent US12649751B2 (Arcus Biosciences, Inc., priority 2022, dated 2026):
Like-named read-outs stand apart in the source and are kept apart here.

Tests used:
HPK1 = HPK1 (Homo sapiens, UniProt Q92918); assay: HPK1 Biochemical Assay (ADP-Glo luminescence; low ATP 10 μM or high ATP 200 μM)
[1] = system: p-SLP-76 (Ser376) in Jurkat cells; assay: pSLP76 Cellular Assay (AlphaLISA SureFire Ultra p-SLP-76 (Ser376), anti-CD3 activated Jurkat cells); type: cell-based; conditions: Homo sapiens, read-out: Cellular Potency
How it was run: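 Jurkat cells, serum-starved overnight in Opti-MEM then in HBSS, preincubated 1 h at 37 °C with 22-point 2-fold compound dilutions, then stimulated with anti-CD3 (0.025 mg/ml added solution) for 45 min. Lysate p-SLP-76 (Ser376) measured by AlphaLISA at 570 nm; IC50 from 4-parameter logistic fit.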

[2] = 2 nM HPK1, 10 μM ATP, read-out: Biochemical Potency (low ATP)
[3] = Jurkat cells, anti-CD3 stimulation, pSLP76
[4] = pSLP76 (Ser376) AlphaLISA, anti-CD3 activated Jurkat cells
[5] = HPK1 ADP-Glo assay, high ATP (200 μM ATP, 5 nM HPK1), read-out: Biochemical Potency (high ATP)

Sequence of HPK1 (Q92918 whole entry, species assumed): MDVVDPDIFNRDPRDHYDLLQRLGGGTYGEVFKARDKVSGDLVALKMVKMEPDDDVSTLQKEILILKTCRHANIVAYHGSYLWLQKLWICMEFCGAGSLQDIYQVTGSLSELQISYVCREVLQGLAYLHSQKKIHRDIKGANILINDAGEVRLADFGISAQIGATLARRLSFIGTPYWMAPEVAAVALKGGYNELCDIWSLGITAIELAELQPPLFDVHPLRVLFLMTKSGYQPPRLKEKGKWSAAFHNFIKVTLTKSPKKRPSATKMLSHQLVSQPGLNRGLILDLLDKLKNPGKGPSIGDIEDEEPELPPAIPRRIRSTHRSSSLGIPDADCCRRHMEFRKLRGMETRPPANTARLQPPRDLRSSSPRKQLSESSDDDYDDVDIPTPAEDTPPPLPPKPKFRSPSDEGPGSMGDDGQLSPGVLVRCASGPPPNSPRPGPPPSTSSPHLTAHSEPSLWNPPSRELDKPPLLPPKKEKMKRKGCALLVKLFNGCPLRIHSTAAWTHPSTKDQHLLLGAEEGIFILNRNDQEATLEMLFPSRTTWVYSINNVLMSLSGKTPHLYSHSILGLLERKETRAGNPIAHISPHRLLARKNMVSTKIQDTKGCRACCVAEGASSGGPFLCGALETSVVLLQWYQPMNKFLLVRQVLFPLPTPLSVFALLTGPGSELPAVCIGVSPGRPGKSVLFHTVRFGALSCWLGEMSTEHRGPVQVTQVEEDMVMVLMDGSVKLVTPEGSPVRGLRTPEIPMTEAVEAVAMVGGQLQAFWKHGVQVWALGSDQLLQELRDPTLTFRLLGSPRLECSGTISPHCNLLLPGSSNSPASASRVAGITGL

Row | IC50 (HPK1; [2]) | IC50 [1, 3] | IC50 [1, 4] | IC50 (HPK1; [5]) | Compound | also measured
1 | < 100 nM | 100 to 1000 nM | – | – | CN1C[C@@H]2C[C@H]1CN2c1cccc(Nc2cc3nc(-c4cccnc4)sc3cn2)n1 [Example 89, 6-[(1S,4S)-5-Methyl-2,5-diazabicyclo[2.2.1]heptan-2-yl]-N-[2-(pyridin-3-yl)-[1,3]thiazolo[5,4-c]pyridin-6-yl]pyridin-2-amine] | –
2 | – | – | 5000 to 25000 nM | – | CN1CCc2ccc(Nc3cc4nc(-c5c(F)cccc5F)sc4cn3)cc2CC1 [Example 328] | IC50 (HPK1; HPK1 ADP-Glo assay, low ATP (10 μM ATP, 2 nM HPK1), read-out: Biochemical Potency (low ATP)): 100 to 1000 nM
3 | < 100 nM | 100 to 1000 nM | – | – | CN1C[C@@H]2C[C@H]1CN2c1nccc(Nc2cc3nc(-c4ccnc(N5CC[C@@H](O)C5)c4)sc3cn2)n1 [Example 264, (3R)-1-{4-[6-({2-[(1S,4S)-5-Methyl-2,5-diazabicyclo[2.2.1]heptan-2-yl]pyrimidin-4-yl}amino)-[1,3]thiazolo[5,4-c]pyridin-2-yl]pyridin-2-yl}pyrrolidin-3-ol] | –
4 | < 100 nM | 100 to 1000 nM | – | – | Cc1ccnn1-c1nc2cc(Nc3ccc(N4CCC(F)(F)C4)c(C(C)(C)N)n3)ncc2s1 [Example 273, 6-(2-Aminopropan-2-yl)-5-(3,3-difluoropyrrolidin-1-yl)-N-[2-(5-methyl-1H-pyrazol-1-yl)-[1,3]thiazolo[5,4-c]pyridin-6-yl]pyridin-2-amine] | –
5 | – | – | 100 to 1000 nM | < 100 nM | Cc1cc(Nc2cc3nc(-c4cccc(C(=O)N(C)C)c4)sc3cn2)nc(N2C[C@@H]3C[C@H]2CN3Cc2cnn(C)c2)n1 [Example 494] | –
6 | – | – | 100 to 1000 nM | < 100 nM | COCCN1C[C@@H]2C[C@H]1CN2c1nc(C)cc(Nc2cc3nc(-c4cccc(C(=O)N(C)C)c4)sc3cn2)n1 [Example 506] | –
7 | < 100 nM | 100 to 1000 nM | – | – | Cc1c(N)cncc1-c1nc2cc(Nc3ccc(N4CCOCC4)c(CN(C)C)n3)ncc2s1 [Example 29, N-[2-(5-Amino-4-methylpyridin-3-yl)-[1,3]thiazolo[5,4-c]pyridin-6-yl]-6-[(dimethylamino)methyl]-5-(morpholin-4-yl)pyridin-2-amine] | –
8 | – | – | < 100 nM | < 100 nM | CCN1C[C@@H]2C[C@H]1CN2c1nc(C)cc(Nc2cc3nc(-c4cccc(C(=O)N5CC[C@@H](C)C5)c4)sc3cn2)n1 [Example 305, [(R)-3-methyl-1-pyrrolidinyl]{m-[6-(2-{(1S,4S)-5-ethyl-2,5-diazabicyclo[2.2.1]hept-2-yl}-6-methyl-4-pyrimidinylamino)-3-thia-1,5-diaza-2-indenyl]phenyl}methanone] | –
9 | < 100 nM | > 5000 nM | – | – | Cc1cccnc1-c1nc2cc(Nc3ccc(C)c(N4CC[C@@H](N)C4)n3)ncc2s1 [Example 74, 6-[(3R)-3-Aminopyrrolidin-1-yl]-5-methyl-N-[2-(3-methylpyridin-2-yl)-[1,3]thiazolo[5,4-c]pyridin-6-yl]pyridin-2-amine] | –
10 | – | – | < 100 nM | < 100 nM | Cc1cc(Nc2cc3nc(-c4cnn(CC5CC5)c4)sc3cn2)nc(N2C[C@@H]3C[C@H]2CN3CCO)n1 [Example 370] | –
11 | – | – | 100 to 1000 nM | < 100 nM | Cc1cc(Nc2cc3nc(-c4ncccc4OC(F)F)sc3cn2)nc(N2C[C@@H]3C[C@H]2CN3C)n1 [Example 468] | –
12 | – | – | < 100 nM | < 100 nM | CCN1C[C@@H]2C[C@H]1CN2c1nc(C)cc(Nc2cc3nc(-c4cccc(C(=O)NC5CCCC5)c4)sc3cn2)n1 [Example 515] | –
13 | – | – | < 100 nM | < 100 nM | Cc1cc(Nc2cc3nc(-c4ccnc(CC5CC5)c4)sc3cn2)nc(N2C[C@@H]3C[C@H]2CN3CCO)n1 [Example 308, 2-[(1S,4S)-5-(4-{2-[2-(cyclopropylmethyl)-4-pyridyl]-3-thia-1,5-diaza-6-indenylamino}-6-methyl-2-pyrimidinyl)-2,5-diazabicyclo[2.2.1]hept-2-yl]ethanol] | –
14 | < 100 nM | < 100 nM | – | – | CN(C)Cc1nc(Nc2cc3nc(-c4ccncc4)sc3cn2)ccc1N1CCOCC1 [Example 5, 6-[(Dimethylamino)methyl]-5-(morpholin-4-yl)-N-[2-(pyridin-4-yl)-[1,3]thiazolo[5,4-c]pyridin-6-yl]pyridin-2-amine] | –
15 | < 100 nM | 100 to 1000 nM | – | – | CN1C[C@@H]2C[C@H]1CN2c1nccc(Nc2cc3nc(-c4ccnc(N5CCOCC5)c4)sc3cn2)n1 [Example 268, 2-[(1S,4S)-5-Methyl-2,5-diazabicyclo[2.2.1]heptan-2-yl]-N-{2-[2-(morpholin-4-yl)pyridin-4-yl]-[1,3]thiazolo[5,4-c]pyridin-6-yl}pyrimidin-4-amine] | –
16 | – | – | < 100 nM | < 100 nM | Cc1cc(Nc2cc3nc(-c4cccc5c4CCCN5)sc3cn2)nc(N2C[C@@H]3C[C@H]2CN3C)n1 [Example 313, 6-methyl-2-[(1S,4S)-5-methyl-2,5-diazabicyclo[2.2.1]heptan-2-yl]-N-[2-(1,2,3,4-tetrahydroquinolin-5-yl)-[1,3]thiazolo[5,4-c]pyridin-6-yl]pyrimidin-4-amine] | –
17 | < 100 nM | 100 to 1000 nM | – | – | c1cncc(-c2nc3cc(Nc4ccc([C@H]5CCOC5)c(CN5CCCC5)n4)ncc3s2)c1 (single isomer, unassigned) [Example 260, 5-[(3R or 3S)—Oxolan-3-yl]-N-[2-(pyridin-3-yl)-[1,3]thiazolo[5,4-c]pyridin-6-yl]-6-[(pyrrolidin-1-yl)methyl]pyridin-2-amine] | –
18 | – | – | 100 to 1000 nM | < 100 nM | COCCN(C)C(=O)c1cccc(-c2nc3cc(Nc4cc(C)nc(N5C[C@@H]6C[C@H]5CN6C)n4)ncc3s2)c1 [Example 566] | –
19 | – | – | < 100 nM | < 100 nM | CCN1C[C@@H]2C[C@H]1CN2c1nc(C)cc(Nc2cc3nc(-c4cc(C(=O)N(C)C)cc(C5CC5)c4)sc3cn2)n1 [Example 536] | –
20 | < 100 nM | 1000 to 5000 nM | – | – | CN1C[C@@H]2C[C@H]1CN2c1nccc(Nc2cc3nc(-c4cccc(NS(C)(=O)=O)c4)sc3cn2)n1 [Example 286, N-{3-[6-({2-[(1S,4S)-5-methyl-2,5-diazabicyclo[2.2.1]heptan-2-yl]pyrimidin-4-yl}amino)-[1,3]thiazolo[5,4-c]pyridin-2-yl]phenyl}methanesulfonamide] | IC50 (HPK1; 5 nM HPK1, 200 μM ATP, read-out: Biochemical Potency (high ATP)): < 100 nM
21 | – | – | 100 to 1000 nM | < 100 nM | CCN1C[C@@H]2C[C@H]1CN2c1nc(C)cc(Nc2cc3nc(-c4cccc(S(=O)(=O)N5CCCC5)c4)sc3cn2)n1 [Example 341] | –
22 | – | – | 100 to 1000 nM | < 100 nM | CC(=O)Nc1cccc(-c2nc3cc(Nc4cc(C)nc(N5C[C@@H]6C[C@H]5CN6C)n4)ncc3s2)c1 [Example 423] | –
23 | – | – | 1000 to 5000 nM | < 100 nM | Cc1cc(Nc2cc3nc(-c4cnn5c4CCCC5)sc3cn2)nc(N2C[C@@H]3C[C@H]2CN3C)n1 [Example 379] | –
24 | – | – | 100 to 1000 nM | < 100 nM | CCOCCN1C[C@@H]2C[C@H]1CN2c1nc(C)cc(Nc2cc3nc(-c4cccc(C(=O)N(C)C)c4)sc3cn2)n1 [Example 489] | –
25 | < 100 nM | 100 to 1000 nM | – | – | Cc1cccnc1-c1nc2cc(Nc3ccc([C@H]4CCOC4)c(CN4CCCC4)n3)ncc2s1 (single isomer, unassigned) [Example 258, N-[2-(3-Methylpyridin-2-yl)-[1,3]thiazolo[5,4-c]pyridin-6-yl]-5-[(3R or 3S)-oxolan-3-yl]-6-[(pyrrolidin-1-yl)methyl]pyridin-2-amine] | –
